In the first experiment the target is T1, ACC (acetyl CoA carboxylase) purified from liver of male SD rat (Rattus norvegicus, UniProt P11497).
T1 construct: applied to a monomeric avidin sepharose column, and washed with buffer B. The ACC was eluted with buffer B containing 2 mM d-biotin; from tissue; host or cells: liver of male SD rat
The experiment in a line: Measurement of ACC inhibition activity ([14C]-NaHCO3 incorporation). The format is biochemical. To be noted: ACC inhibition activity rate at 1 μM; Table 2-III, Mode 3 acetylene/oxadiazole/thiazole compounds (numbers = x-III); read-out: ACC Inhibition (%). The protocol: A male SD rat was deprived of food for two days and then fed a high-sucrose diet (component) for two days. While anesthetized with ether, the descending vena cava was cut upon, the animal was bled, and the liver was rapidly recovered. In an ice-cooled buffer solution A (225 mM mannitol, 75 mM sucrose, 10 mM Tris-HCl (pH 7.5), 0.05 mM EDTA, 5 mM potassium citrate, 2.5 mM MgCl2, 10 mg/L pepstatin A, 10 mg/L leupeptin, 1 mM PMSF), the liver was homogenized with a polytone homogenizer. A quantity of buffer A nine times the weight of the liver was added, the mixture was centrifuged for 10 minutes at 1,000 g, the supernatant was recovered, and the supernatant was centrifuged for another 10 minutes at 17,000 g.
Ammonium sulfate was added to 35 percent saturation to the obtained supernatant. The mixture was stirred for 45 minutes and then centrifuged for 10 minutes at 17,000 g. Buffer solution B (100 mM Tris-HCl (pH 7.5), 500 mM NaCl, 1 mM EDTA, 0.1 mM DTT, 10 percent glycerol, 10 mg/L pepstatin A, 10 mg/L leupeptin, 0.5 mM PMSF) was added to the obtained precipitate and dissolved. The solution was then centrifuged for 20 minutes at 40,000 g. The supernatant was dialyzed overnight against buffer C (100 mM Tris-HCl (pH 7.5), 500 mM NaCl, 1 mM EDTA, 0.1 mM DTT, 5 percent glycerol).
The dialyzed supernatant was passed through a […], applied to a monomeric avidin sepharose column, and washed with buffer B. The ACC was eluted with buffer B containing 2 mM d-biotin.
(2 Measurement of ACC Inhibition Activity)
The compounds synthesized in the above-described embodiments were dissolved in DMSO and charged to glass vials. 250 μL of ACC-containing reaction solution (40 mM Tris-HCl (pH 7.5), 40 mM MgCl2, 40 mM sodium citrate, and 2 mM DTT) was added. The mixture was heated for 30 minutes at 37° C. in a thermostatic chamber and then cooled with ice. To reaction solution 1 was added 250 μL of reaction solution 2 containing [14C]—NaHCO3 (40 mM Tris-HCl (pH 7.5), 2 mM DTT, 8 mM ATP, 0.5 mM acetyl CoA) and the mixture was heated for 10 minutes at 37° C. 100 μL of 1N HCl was added to stop the reaction. Water in the reaction solution was removed with a centrifugal evaporator, a scintillator was added, the solid component was dissolved, and the 14C radioactivity was measured with a liquid scintillation counter. The ACC inhibition activity of each compound was calculated from the following equation and converted to the ACC inhibition activity rate (%) at 1 μM.
ACC inhibition rate (%)=(1−(a−c)/(b−c))×100 a. Radioactivity when test drug added b: Radioactivity when test drug not added c: Blank* *Reaction solution 1 to which 100 μL of 1N HCl was added before mixing reaction solution 1 and reaction solution 2
For the compound `O=C(O)c1ccccc1S(=O)(=O)Nc1ccc(C#Cc2cccc(C(F)(F)F)c2)cc1` [compound 9], the inhibition (commonly the drop in the measured response relative to a control, in per cent) at 1 µM is 60%.

Turning to `O=C(O)c1ccccc1C(=O)Nc1ccc(C#Cc2cccc(C(F)(F)F)c2)cc1` [compound 10], the inhibition at 1 µM was determined as 61%. On the same count and under the same terms, the result for `O=C(O)c1ccc(C(=O)Nc2ccc(C#Cc3cccc(C(F)(F)F)c3)cc2)c(C(=O)O)c1` [compound 13] reads 51%; that for `O=C1c2ccccc2C(=O)N1c1cccc(C#Cc2cccc(C(F)(F)F)c2)c1` [compound 18], 60%; that for `O=C(O)c1cccc(-c2nc(-c3ccc(C#Cc4cccc(C(F)(F)F)c4)cc3)no2)c1` [compound 27], 56%. Still for that read-out and setting: to `O=C(O)c1ccc(-c2nc(-c3ccc(C#Cc4cccc(C(F)(F)F)c4)cc3)no2)cc1` [compound 28] belongs 58%; to `O=C(O)c1ccccc1-c1csc(-c2ccc(C#Cc3cccc(C(F)(F)F)c3)cc2)n1` [compound 35], 50%; to `O=C(O)c1ccc(-c2csc(-c3ccc(C#Cc4cccc(C(F)(F)F)c4)cc3)n2)cc1` [compound 36], 54%.

In the case of `O=C(O)C1C=CC=CC1c1nc(-c2ccc(-c3csc(-c4ccc(C(F)(F)F)cc4)n3)cc2)no1` (centres unmarked) [compound 49], the inhibition at 1 µM turned out to be 62%.

Turning to `O=C(O)c1ccc(-c2nc(-c3ccc(-c4csc(-c5ccc(C(F)(F)F)cc5)n4)cc3)no2)cc1` [compound 51], the inhibition at 1 µM amounted to 53%. For the compound `O=S(=O)(Nc1ccc(-c2csc(-c3ccc(C(F)(F)F)cc3)n2)cc1)c1cccc(S(=O)(=O)Nc2ccc(-c3csc(-c4ccc(C(F)(F)F)cc4)n3)cc2)c1` [compound 55], the inhibition at 1 µM was 73%.

Still in this experiment, the particulars now being: ACC inhibition activity rate at 1 μM; Table 3-I, Mode 1 quinoline compounds (numbers = x-I); read-out: ACC Inhibition (%).
As for `CCCCS(=O)(=O)NC(=O)c1ccccc1NC(=O)c1ccc2nc(-c3cccc(OC(F)(F)F)c3)ccc2c1` [compound 13], the inhibition at 1 µM amounted to 48%.

With `CC(C)c1ccc(S(=O)(=O)NC(=O)CC(NC(=O)c2ccc3nc(-c4cc(C(F)(F)F)cc(C(F)(F)F)c4)ccc3c2)c2ccccc2)cc1` (centres unmarked) [compound 49], the inhibition at 1 µM is 62%. Take `CC(C)c1ccc(S(=O)(=O)NC(=O)C[C@H](NC(=O)c2ccc3nc(-c4cc(C(F)(F)F)cc(C(F)(F)F)c4)ccc3c2)C2CCCCC2)cc1` [compound 50]: the inhibition at 1 µM turned out to be 87%. The same measure, in the same setting: to `CCCCS(=O)(=O)NC(=O)CC1(NC(=O)c2ccc3nc(-c4cc(C(F)(F)F)cc(C(F)(F)F)c4)ccc3c2)CCCCC1` [compound 54] belongs 45%. For `CCCCS(=O)(=O)NC(=O)C1CCCCCC[C@@H]1NC(=O)c1ccc2nc(-c3cc(C(F)(F)F)cc(C(F)(F)F)c3)ccc2c1` (some centres unmarked) [compound 55], the inhibition at 1 µM was 70%. On the same count and under the same terms, the result for `CCCCS(=O)(=O)NC(=O)CC(C)(NC(=O)c1ccc2nc(-c3cc(C(F)(F)F)cc(C(F)(F)F)c3)ccc2c1)c1ccccc1` (centres unmarked) [compound 56] reads 47%.

The experiment is the same for the next values; noted with them: ACC inhibition activity rate at 1 μM; Table 4-IV, Mode 4 benzenediamine compounds (numbers = x-IV); read-out: ACC Inhibition (%).
Regarding `CCCCCC(=O)NS(=O)(=O)c1ccccc1NC(=O)c1ccc(Nc2c(F)c(F)c(C(F)(F)F)c(F)c2F)c([N+](=O)[O-])c1` [compound 8], the inhibition at 1 µM is 50%. On the same count and under the same terms, to `CCCCCC(=O)NS(=O)(=O)c1ccccc1NC(=O)c1ccc(Nc2ccc(C(F)(F)F)cc2)c(NC(=O)c2cc(C(F)(F)F)cc(C(F)(F)F)c2)c1` [compound 16] belongs 86%; to `CCCCCC(=O)NS(=O)(=O)c1ccccc1NC(=O)c1ccc(NCCC(C)C)c(NC(=O)c2cc(C(F)(F)F)cc(C(F)(F)F)c2)c1` [compound 20], 85%; to `CCCCCC(=O)NS(=O)(=O)c1ccccc1NC(=O)c1ccc(Nc2ccccc2)c(NC(=O)c2ccccc2)c1` [compound 23], 74%. The same measure, in the same setting: to `CCCCCC(=O)NS(=O)(=O)c1ccccc1NC(=O)c1ccc(Nc2ccccc2)c(NC(=O)c2ccc(C(F)(F)F)cc2)c1` [compound 25] belongs 97%.

`CCCCCC(=O)NS(=O)(=O)c1ccccc1NC(=O)c1ccc(Nc2ccccc2)c(NC(=O)c2cc(C(F)(F)F)cc(C(F)(F)F)c2)c1` [compound 26]: the inhibition at 1 µM amounted to 78%. On the same count and under the same terms, the result for `CCCCCC(=O)NS(=O)(=O)c1ccccc1NC(=O)c1ccc(Nc2ccc(C(F)(F)F)cc2)c(NC(=O)c2cccc(C(F)(F)F)c2)c1` [compound 27] reads 91%; that for `CCCCCC(=O)NS(=O)(=O)c1ccccc1NC(=O)c1ccc(Nc2ccc(C(F)(F)F)cc2)c(NC(=O)c2ccc(C(F)(F)F)cc2)c1` [compound 28], 92%. On the same count and under the same terms, the result for `CCCCCC(=O)NS(=O)(=O)c1ccccc1NC(=O)c1ccc(Nc2ccc(C(F)(F)F)cc2)c(NC(=O)C2CCCCC2)c1` [compound 31] reads 72%; that for `CCCCCC(=O)NS(=O)(=O)c1ccccc1NC(=O)c1ccc(Nc2ccc(C(F)(F)F)cc2)c(NC(=O)c2ccncc2)c1` [compound 33], 61%.

Regarding `CCCCCC(=O)NS(=O)(=O)c1ccccc1NC(=O)c1ccc(Nc2ccc(C(F)(F)F)cc2)c(NC(=O)c2cccs2)c1` [compound 34], the inhibition at 1 µM stood at 67%. For the compound `CCCCCC(=O)NS(=O)(=O)c1ccccc1NC(=O)c1ccc(Nc2ccc(C(F)(F)F)cc2)c(NC(=O)OCc2ccccc2)c1` [compound 35], the inhibition at 1 µM worked out at 91%. As for `CC(C)CCNc1ccc(-c2noc(-c3cccc(C(=O)NS(=O)(=O)c4ccccc4)c3)n2)cc1[N+](=O)[O-]` [compound 36], the inhibition at 1 µM turned out to be 87%. `CC(C)CCN(C)c1ccc(-c2noc(-c3cccc(C(=O)NS(=O)(=O)c4ccccc4)c3)n2)cc1[N+](=O)[O-]` [compound 37]: the inhibition at 1 µM worked out at 86%. Regarding `CC(C)CCN(C)c1ccc(-c2noc(-c3cccc(C(=O)NS(=O)(=O)c4ccccc4)c3)n2)cc1NC(=O)c1cccc(C(F)(F)F)c1` [compound 39], the inhibition at 1 µM was 99%. On the same count and under the same terms, the result for `CC(C)CCN(C)c1ccc(-c2noc(-c3cccc(C(=O)NS(=O)(=O)c4ccccc4)c3)n2)cc1NC(=O)c1ccccc1` [compound 40] reads 87%; that for `CC(C)CCN(C)c1ccc(-c2noc(-c3cccc(C(=O)NS(=O)(=O)c4ccccc4)c3)n2)cc1NC(=O)C1CCCCC1` [compound 41], 85%.

Consider `CCC(CC)C(=O)Nc1cc(-c2noc(-c3cccc(C(=O)NS(=O)(=O)c4ccccc4)c3)n2)ccc1N(C)CCC(C)C` [compound 42], for which the inhibition at 1 µM is 76%. On to `CC(C)CCN(C)c1ccc(-c2noc(-c3cccc(C(=O)NS(=O)(=O)c4ccccc4)c3)n2)cc1NC(=O)c1cccs1` [compound 43], for which the inhibition at 1 µM is 83%. On the same count and under the same terms, to `CC(C)CCN(C)c1ccc(-c2noc(-c3cccc(C(=O)NS(=O)(=O)c4ccccc4)c3)n2)cc1NC(=O)OCc1ccccc1` [compound 44] belongs 100%; to `CC(C)CCN(C)c1ccc(-c2noc(-c3cccc(C(=O)NS(=O)(=O)c4ccccc4)c3)n2)cc1NCc1ccccc1` [compound 45], 100%; to `CC(C)CCN(C)c1ccc(-c2noc(-c3cccc(C(=O)NS(=O)(=O)c4ccccc4)c3)n2)cc1NCC1CCCCC1` [compound 47], 100%.

With `CC(C)CCN(C)c1ccc(-c2noc(-c3cccc(C(=O)NS(=O)(=O)c4ccccc4)c3)n2)cc1NC(C)C` [compound 48], the inhibition at 1 µM is 87%. Same read-out and setting: to `CC(C)CCN(C)c1ccc(-c2nc(-c3cccc(C(=O)NS(=O)(=O)c4ccccc4)c3)no2)cc1[N+](=O)[O-]` [compound 51] belongs 76%. For the compound `O=C(NS(=O)(=O)c1ccccc1)c1cccc(-c2noc(-c3ccc(NC4CC4)c([N+](=O)[O-])c3)n2)c1` [compound 52], the inhibition at 1 µM was determined as 59%. Same read-out and setting: the result for `CC(C)CCN(C)c1ccc(C(=O)NC(CC(=O)NS(=O)(=O)c2ccccc2)C2CCCCC2)cc1NCc1ccccc1` (centres unmarked) [compound 54] reads 87%.

Take `CC(C)CCN(C)c1ccc(C(=O)NC(CC(=O)NS(=O)(=O)c2ccccc2)C2CCCCC2)cc1NCC1CCCCC1` (centres unmarked) [compound 55]: the inhibition at 1 µM stood at 90%.

The values above are taken from patent US7402696B2, “Benzene compounds” (Ajinomoto Co., Inc., priority 2004, dated 2008).
